Each structure is given as a SMILES string.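 Interpolation was linear, between the two tested concentrations surrounding the appropriate level; five concentrations were tested over 48 hours in 96-well plates. GI50 = concentration required for 50% inhibition of growth. At the TGI there is no net growth.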

Test systems include OVCAR-3 ovarian; NCI-H460 lung; HOP-62 NSCLC; MDA-MB-435; HCT-15 colon; MOLT-4 leukemia; SF-268 CNS; HT29 colon; OVCAR-4 ovarian; SR leukemia.
Common to all, as to experiment: growth of human tumour cells (NCI), 48 h

Consider `COc1ccc(-c2ccc(/C=N/n3c(COc4ccc(Cl)cc4Cl)n[nH]c3=S)o2)c([N+](=O)[O-])c1`, for which the GI50 with OVCAR-3 ovarian is 16.1 µM; in the test with NCI-H460 lung, 18 µM; in the test on HOP-62 NSCLC, 19.8 µM; in the test on MDA-MB-435 it was 18.1 µM; with HCT-15 colon it was 28.6 µM; in the test on MOLT-4 leukemia, 14 µM. Moreover, the GI50 in the test with SF-268 CNS is 23.1 µM; in the test with HT29 colon, 34.2 µM; in the test on OVCAR-4 ovarian, 28.9 µM. The TGI in the test on OVCAR-3 ovarian is 46.3 µM; in the test with NCI-H460 lung it was 46.3 µM; in the test with HOP-62 NSCLC, 35.7 µM; with MDA-MB-435, 38 µM; with HCT-15 colon it was above 100 µM; in the test with MOLT-4 leukemia, 38.9 µM. The results for the TGI in the test with SF-268 CNS, with HT29 colon and with OVCAR-4 ovarian were 67.1 µM, 79.6 µM and 72.7 µM, respectively.

As to `N#Cc1cnc2cc(OC[C@H](O)CO)c(NC(=O)CC3CSSC3)cc2c1Nc1ccc(OCc2cccc(F)c2)c(Cl)c1`, the GI50 with OVCAR-3 ovarian is 0.514 µM; with NCI-H460 lung, 0.126 µM; in the test on HOP-62 NSCLC, 0.895 µM; in the test with MDA-MB-435, 0.272 µM; with HCT-15 colon, 3.96 µM; with MOLT-4 leukemia it was 0.0931 µM. In addition, the GI50 was 0.537 µM with SF-268 CNS, 0.221 µM with HT29 colon and 0.619 µM in the test with OVCAR-4 ovarian. Besides, the TGI was 1.24 µM in the test with OVCAR-3 ovarian; 0.298 µM with NCI-H460 lung; 1.81 µM in the test on HOP-62 NSCLC; 0.878 µM with MDA-MB-435; 13.2 µM in the test with HCT-15 colon; 0.209 µM in the test with MOLT-4 leukemia. The TGI with SF-268 CNS was 1.56 µM; in the test on HT29 colon, 0.836 µM; with OVCAR-4 ovarian, 1.57 µM.

As for `Nc1cc2cccc[n+]2c2cc(Cl)ccc12`, the GI50 in the test on NCI-H460 lung was 18 µM; in the test on MDA-MB-435 it was 15.7 µM; in the test with SR leukemia, 2.33 µM; in the test with MOLT-4 leukemia, 4.22 µM; in the test on SF-268 CNS, 4.03 µM; in the test with HT29 colon, 37.4 µM. In the test with OVCAR-4 ovarian, the GI50 was 8.44 µM. The TGI in the test with NCI-H460 lung is 49.6 µM; in the test with MDA-MB-435, 48.7 µM; with SR leukemia it was 16.2 µM; with SF-268 CNS, 21.7 µM; in the test with OVCAR-4 ovarian it was 38.9 µM.

Regarding `O=C1c2ccccc2-c2c1c1ccccc1c(=O)n2CCCNCCCNCCCn1c2c(c3ccccc3c1=O)C(=O)c1ccccc1-2`, the GI50 is 0.0818 µM with OVCAR-3 ovarian; below 0.0169 µM in the test on NCI-H460 lung; below 0.01 µM with HOP-62 NSCLC; 0.338 µM in the test with MDA-MB-435; 0.0605 µM with HCT-15 colon; below 0.01 µM with MOLT-4 leukemia. Further, the GI50 with SF-268 CNS is 0.231 µM; in the test with HT29 colon it was below 0.01 µM; in the test with OVCAR-4 ovarian, 0.188 µM. Also, the TGI in the test with OVCAR-3 ovarian stood at 0.232 µM; in the test with NCI-H460 lung, 0.266 µM; with MDA-MB-435 it was 2.26 µM; in the test on HCT-15 colon it was 0.196 µM; in the test with SF-268 CNS it was 4.13 µM; in the test on HT29 colon, 0.135 µM. Besides, in the test with OVCAR-4 ovarian, the TGI was 1.02 µM.

In the case of `CC1SC(c2c(Cl)cccc2Cl)N(NC(=O)c2[nH]c3ccc(F)cc3c2-c2ccccc2)C1=O` (stereo unspecified), the GI50 is 1.76 µM in the test on OVCAR-3 ovarian; 2.03 µM in the test with NCI-H460 lung; 1.79 µM in the test with HOP-62 NSCLC; 5.01 µM in the test with MDA-MB-435; 3.73 µM in the test with HCT-15 colon; 13.2 µM with MOLT-4 leukemia. Also, the GI50 in the test on SF-268 CNS was 1.97 µM; in the test on HT29 colon, 2.96 µM; with OVCAR-4 ovarian, 1.69 µM. For the same compound, the TGI is 3.45 µM in the test with OVCAR-3 ovarian; 3.9 µM in the test with NCI-H460 lung; 3.33 µM in the test with HOP-62 NSCLC; above 100 µM in the test on MDA-MB-435; 22.2 µM with HCT-15 colon; 64.7 µM in the test with MOLT-4 leukemia. Also, the values for the TGI in the test with SF-268 CNS, in the test with HT29 colon and with OVCAR-4 ovarian were 4.89 µM, 10.8 µM and 3.4 µM, respectively.

Turning to `COc1c2c(c3c(c1CCC(=O)O)OC(C)(C)C=C3)OC(C)(C)C=C2`, the TGI with OVCAR-3 ovarian, in the test on HOP-62 NSCLC, in the test on MDA-MB-435, in the test on HCT-15 colon, in the test with SR leukemia and with MOLT-4 leukemia was above 100 µM throughout. Also, the TGI in the test with SF-268 CNS, in the test with HT29 colon and in the test with OVCAR-4 ovarian was above 100 µM each time.

As to `COC(=O)CCC1CCc2c(OC)ccc(O)c2C1=O` (stereo unspecified), the TGI with OVCAR-3 ovarian, in the test with NCI-H460 lung, in the test on HOP-62 NSCLC, in the test with HCT-15 colon, in the test on SR leukemia and with MOLT-4 leukemia was above 100 µM throughout. The TGI with SF-268 CNS, with HT29 colon and with OVCAR-4 ovarian was above 100 µM each time.

Turning to `O=C(CC(=O)CC(O)(C(F)(F)F)C(F)(F)F)CC(O)(C(F)(F)F)C(F)(F)F`, the TGI with OVCAR-3 ovarian, in the test with NCI-H460 lung, in the test with HOP-62 NSCLC, in the test on MDA-MB-435, with HCT-15 colon and with MOLT-4 leukemia was above 10 µM each time. The TGI in the test with SF-268 CNS, with HT29 colon and in the test on OVCAR-4 ovarian was above 10 µM in each case.

With `O=C([O-])c1ccccc1Nc1ccccn1.O=C([O-])c1ccccc1Nc1ccccn1.[Ni+2]`, the GI50 was above 100 µM in the test with OVCAR-3 ovarian; above 100 µM in the test with NCI-H460 lung; above 100 µM in the test on HOP-62 NSCLC; above 100 µM with HCT-15 colon; above 100 µM in the test with SR leukemia; 89.8 µM in the test with MOLT-4 leukemia. Moreover, the figures for the GI50 with SF-268 CNS, in the test on HT29 colon and in the test with OVCAR-4 ovarian were 75.7 µM, above 100 µM and above 100 µM, respectively. The TGI with OVCAR-3 ovarian, with NCI-H460 lung, with HOP-62 NSCLC, with HCT-15 colon, in the test with SR leukemia and in the test on MOLT-4 leukemia was above 100 µM in each case. Besides, the TGI in the test on SF-268 CNS, in the test with HT29 colon and in the test with OVCAR-4 ovarian was above 100 µM throughout.

With `CC(=O)NNc1nc(C)c(C(=O)NNC(=O)C(=O)Nc2ccccc2C#N)s1`, the TGI in the test on OVCAR-3 ovarian, in the test with NCI-H460 lung, with HOP-62 NSCLC, in the test with HCT-15 colon, with SR leukemia and in the test on MOLT-4 leukemia was above 100 µM throughout. For the same compound, the TGI in the test with SF-268 CNS, in the test on HT29 colon and in the test on OVCAR-4 ovarian was above 100 µM in each case.

Source of the values: PubChem BioAssay (NCI).
